Test results: patent publication US20040171489A1, “Synergistic active compound combinations for controlling harmful plants” (priority 1998, published 2004)

Experiments:
Papaver rhoeas [1] = experiment: Example 1 field trial, 2-4 leaf stage: herbicidal effect; assay type: in vivo; details: 28 days after application
Description: (§1) The herbicidal efficacy of the active compounds or active compound mixtures was scored visually using the treated plots in comparison to untreated control plots. The damage and development of all above-ground parts of the plants were recorded. Scoring was carried out using a percentage scale (100% effect=all plants killed; 50% effect=50% of the plants and the green parts of the plants killed; 0% effect=no noticeable effect=like control plot. The scores of in each case 4 plots were averaged.
(§2) If the observed activity values already exceed the formal sum of the values for the trials with the individual applications, they also exceed the expected value according to Colby which is calculated using the following formula and which is likewise considered to be an indication of synergism (cf. S. R. Colby; in Weeds 15 (1967) p. 20 to 22):
(§3) Crop plants were grown outdoors on plots under natural outdoor conditions, and seeds or rhizome pieces of typical harmful plants were laid out or the natural weed growth was utilized. Treatment with the compositions according to the invention was carried out after the harmful plants had emerged and the crop plants were, generally, at the 2- to 4-leaf stage; in some cases (as stated), application of individual active compounds or active compound combinations was carried out pre-emergence (cf. Section 1) or post-emergence (cf. Section 2) or as a sequential treatment partly pre-emergence and/or post-emergence. After the application, for example 2, 4, 6 and 8 weeks after the application, the effect of the preparations was scored visually by comparison with untreated controls (cf. scoring in Section 1). In the field trial as well, the compositions according to the invention have synergistic herbicidal activity against a broad spectrum of economically important weed grasses and broad-leaved weeds. […] Moreover, the effects in essential phases of the scoring period were above the expected values according to Colby, also indicating synergism. In contrast, the crop plants were, as a consequence of the treatments with the herbicidal compositions, damaged only to a small degree, if at all.

winter barley [2] = experiment: Example 5 field trial, 2-4 leaf stage: crop damage; assay type: in vivo, Hordeum vulgare; details: 28 days after application
Description: as §1, §2
as §3, with “In contrast, the crop plants were, as a consequence of the treatments with the herbicidal compositions, damaged only to a small degree, if at all.” left out

Papaver rhoeas [3] = experiment: Example 2 field trial, fall application 2-4 leaf stage: herbicidal effect; assay type: in vivo; details: 45 days after the application
Description: as §1, §2
(§4) Crop plants were grown outdoors on plots under natural outdoor conditions, and seeds or rhizome pieces of typical harmful plants were laid out or the natural weed growth was utilized. […] After the application, for example 2, 4, 6 and 8 weeks after the application, the effect of the preparations was scored visually by comparison with untreated controls (cf. scoring in Section 1). […]

winter wheat [4] = experiment: Example 4 field trial, application fall 2-4 leaf stage: crop damage; assay type: in vivo, Triticum aestivum; details: 100 g of ai/ha; 60 days after application
Description: as §1, §2, §4

winter wheat [5] = experiment: Example 3 field trial, fall application 2-4 leaf stage: crop damage; assay type: in vivo, Triticum aestivum; details: 60 days after application
Description: as §1, §2, §4

winter barley [6] = experiment: Example 2 field trial, fall application 2-4 leaf stage: crop damage; assay type: in vivo, Hordeum vulgare; details: 45 days after the application
Description: as §1, §2, §4

Veronica hederifolia = experiment: Example 4 field trial, application fall 2-4 leaf stage: herbicidal effect; assay type: in vivo; details: 100 g of ai/ha; 60 days after application
Description: as §1, §2, §4

Aphanes arvensis = experiment: as above; assay type: in vivo; details: 100 g of ai/ha; 60 days after application
Description: as §1, §2, §4

Viola arvensis [7] = experiment: Example 3 field trial, fall application 2-4 leaf stage: herbicidal effect; assay type: in vivo; details: 60 days after application
Description: as §1, §2, §4

Papaver rhoeas [8] = experiment: Example 5 field trial, 2-4 leaf stage: herbicidal effect; assay type: in vivo; details: 28 days after application
Description: as §1, §2
as §3, with “In contrast, the crop plants were, as a consequence of the treatments with the herbicidal compositions, damaged only to a small degree, if at all.” left out

winter barley [9] = experiment: Example 1 field trial, 2-4 leaf stage: crop damage; assay type: in vivo, Hordeum vulgare; details: 28 days after application
Description: as §1, §2, §3

Myosotis arvensis = experiment: Example 16 field trial, post-emergence, 2- to 3-leaf stage: herbicidal effect; assay type: in vivo; details: 180 g of ai/ha; 69 days after application
Description: as §1, §2, §3

Viola arvensis [10] = experiment: as above; assay type: in vivo; details: 180 g of ai/ha; 69 days after application
Description: as §1, §2, §3

Lamium ssp. = experiment: as above; assay type: in vivo; details: 180 g of ai/ha; 69 days after application
Description: as §1, §2, §3

Papaver rhoeas [11] = experiment: as above; assay type: in vivo; details: 180 g of ai/ha; 69 days after application
Description: as §1, §2, §3

Galium aparine [12] = experiment: as above; assay type: in vivo; details: 180 g of ai/ha; 69 days after application
Description: as §1, §2, §3

Anthemis arvensis = experiment: as above; assay type: in vivo; details: 180 g of ai/ha; 69 days after application
Description: as §1, §2, §3

Matricaria chamomilla = experiment: as above; assay type: in vivo; details: 180 g of ai/ha; 69 days after application
Description: as §1, §2, §3

Galium aparine [13] = experiment: Example 10 pre-emergence application, fall: herbicidal effect; assay type: in vivo; details: 180 g of ai/ha; 169 days after application
From the text: (§5) Seeds or rhizome pieces of monocotyledonous and dicotyledonous weed plants are placed in sandy loam soil in pots and covered with soil. The compositions, formulated in the form of concentrated aqueous solutions, wettable powders or emulsion concentrates, are then applied to the surface of the soil cover as aqueous solution, suspension or emulsion at an application rate of 600 to 800 l of water/ha (converted), in various dosages. After the treatment, the pots are placed in a greenhouse and kept under good growth conditions for the weeds. After the test plants have emerged, the damage to the plants or the negative effects on the emergence is scored visually after a test period of 3 to 4 weeks by comparison with untreated controls. As shown by the test results, the compositions according to the invention have good herbicidal pre-emergence activity against a broad spectrum of weed grasses and broad-leaved weeds.
as §1, §2, §3

winter barley [14] = experiment: Example 16 field trial, post-emergence, 2- to 3-leaf stage: crop damage; assay type: in vivo, Hordeum vulgare; details: in vivo
Description: as §1, §2, §4

winter wheat [15] = experiment: as above; assay type: in vivo, Triticum aestivum; details: in vivo
Description: as §1, §2, §4

winter wheat [16] = experiment: Example 10 pre-emergence application, fall: crop damage; assay type: in vivo, Triticum aestivum; details: winter wheat (Triticum aestivum), in vivo, 169 days
From the text: as §5, §1, §2, §3

Veronica persicaria = experiment: Example 6 field trial, stage begin of VERPE blossom: herbicidal effect; assay type: in vivo; details: 50 g of ai/ha; 28 days after application
Description: as §1, §2, §4

Chenopodium album = experiment: Example 7a field trial, 2-4 leaf stage: herbicidal effect; assay type: in vivo; details: 28 days after application
Description: as §1, §2
as §3, with “In contrast, the crop plants were, as a consequence of the treatments with the herbicidal compositions, damaged only to a small degree, if at all.” left out

winter wheat [17] = experiment: Example 7a field trial, 2-4 leaf stage: crop damage; assay type: in vivo, Triticum aestivum; details: 28 days after application
Description: as §1, §2
as §3, with “In contrast, the crop plants were, as a consequence of the treatments with the herbicidal compositions, damaged only to a small degree, if at all.” left out

Stellaria media = experiment: Example 7b field trial, 2-4 leaf stage: herbicidal effect; assay type: in vivo; details: 50 g of ai/ha; 28 days after application
Description: as §1, §2, §4

winter wheat [18] = experiment: Example 7b field trial, 2-4 leaf stage: crop damage; assay type: in vivo, Triticum aestivum; details: 50 g of ai/ha; 28 days after application
Description: as §1, §2, §4

winter wheat [19] = experiment: Example 6 field trial, stage begin of VERPE blossom: crop damage; assay type: in vivo, Triticum aestivum; details: 50 g of ai/ha; 28 days after application
Description: as §1, §2, §4

CC(COc1cccc(Cl)c1)Nc1nc(N)nc(C(C)(C)F)n1 (stereo not drawn) [(A4), 4-amino-6-(1-fluoro-1-methylethyl)-2-[2-(3-chlorophenoxy)-1-methylethyl-amino]-1,3,5-triazine]
herbicidal effect, PAPRH (Papaver rhoeas [1]; 25 g of ai/ha): 0%
herbicidal effect, PAPRH (Papaver rhoeas [1]; 50 g of ai/ha): 0%
herbicidal effect, PAPRH (Papaver rhoeas [1]; 100 g of ai/ha): 0%
damage, HORVW (winter barley [2]; 50 g of ai/ha): 0%
damage, HORVW (winter barley [2]; 100 g of ai/ha): 0%
herbicidal effect, PAPRH (Papaver rhoeas [3]; 50 g of ai/ha): 0%
herbicidal effect, PAPRH (Papaver rhoeas [3]; 100 g of ai/ha): 0%
damage, TRZAW (winter wheat [4]): 0%
damage, TRZAW (winter wheat [5]; 50 g of ai/ha): 0%
damage, TRZAW (winter wheat [5]; 100 g of ai/ha): 0%
damage, HORVW (winter barley [6]; 50 g of ai/ha): 0%
damage, HORVW (winter barley [6]; 100 g of ai/ha): 0%
herbicidal effect, Veronica hederifolia (Veronica hederifolia): 40%
herbicidal effect, Aphanes arvensis (Aphanes arvensis): 20%
herbicidal effect, VIOAR (Viola arvensis [7]; 50 g of ai/ha): 78%
herbicidal effect, VIOAR (Viola arvensis [7]; 100 g of ai/ha): 88%
herbicidal effect, PAPRH (Papaver rhoeas [8]; 50 g of ai/ha): 0%
herbicidal effect, PAPRH (Papaver rhoeas [8]; 100 g of ai/ha): 0%
damage, HORVW (winter barley [9]; 25 g of ai/ha): 0%
damage, HORVW (winter barley [9]; 50 g of ai/ha): 0%
damage, HORVW (winter barley [9]; 100 g of ai/ha): 0%

CC(C)N(C(=O)COc1nnc(C(F)(F)F)s1)c1ccc(F)cc1 [(B1.2.1), fluthiamide, reference compound]
herbicidal effect (%), MYOAR (Myosotis arvensis): 16%
herbicidal effect (%), VIOAR (Viola arvensis [10]): 20%
herbicidal effect (%), LAMSS (Lamium ssp.): 87%
herbicidal effect (%), PAPRH (Papaver rhoeas [11]): 12%
herbicidal effect (%), GALAP (Galium aparine [12]): 68%
herbicidal effect (%), ANTAR (Anthemis arvensis): 25%
herbicidal effect (%), MATCH (Matricaria chamomilla): 61%
herbicidal effect, GALAP (Galium aparine [13]): 45%
herbicidal effect (%), HORVW (crop) (winter barley [14]): 0%
herbicidal effect (%), TRZAW (crop) (winter wheat [15]): 0%
damage, TRZAW (winter wheat [16]): 2%

CCC(CCc1ccccc1)Nc1nc(N)nc(C(C)(C)F)n1 (stereo not drawn) [(A3), 4-amino-6-(1-fluoro-1-methylethyl)-2-(3-phenyl-1-ethylpropylamino)-1,3,5-triazine]
herbicidal effect, VERPE (Veronica persicaria): 55%
herbicidal effect, CHEAL (Chenopodium album; 25 g of ai/ha): 5%
herbicidal effect, CHEAL (Chenopodium album; 50 g of ai/ha): 35%
herbicidal effect, CHEAL (Chenopodium album; 100 g of ai/ha): 85%
damage, TRZAW (winter wheat [17]; 25 g of ai/ha): 1%
damage, TRZAW (winter wheat [17]; 50 g of ai/ha): 0%
damage, TRZAW (winter wheat [17]; 100 g of ai/ha): 10%
herbicidal effect, STEME (Stellaria media): 48%
damage, TRZAW (winter wheat [18]): 2%
damage, TRZAW (winter wheat [19]): 0%
